Test results taken from US10017514B2, “6,7-dihydropyrazolo[1,5-α]pyrazin-4(5H)-one compounds and their use as negative allosteric modulators of mGluR2 receptors” (Janssen Pharmaceutica NV, priority 2014, dated 2018).

Legend:
[1] = target: T1, human mGlu2 receptor (Homo sapiens, UniProt Q14416); experiment: [35S]GTPγS binding assay, mGluR2 negative allosteric modulation; assay type: biochemical; conditions: for Emax: maximal % inhibition relative to the control glutamate response (EC80 glutamate), read-out: GTPγS-hmGluR2 anGT Emax; for IC50: membranes from CHO cells transfected with human mGlu2 receptor, glutamate ~EC80 (60 μM), read-out: GTPγS-hmGluR2 anGT pIC50 (converted)
T1 construct: expressed in transfected cells; host or cells: CHO cells (membrane preparation)
Procedure: Total reaction volume was 200 μl. […] Membrane-bound radioactivity was counted in a Topcount.

[2] = test system: rats; experiment: Reversal of the effect of the mGluR2 PAM JNJ-42153605-induced inhibition of scopolamine-induced hyperlocomotion; assay type: in vivo, rat; conditions: Rattus norvegicus; rats; PO, 60 min pretreatment; JNJ-42153605 20 mg/kg i.v. + scopolamine 0.16 mg/kg i.v.; criterion total distance >1500 cm in 30 min; read-out: SCOP JNJ-42153605 ED50
Procedure: Motor activity was measured in microprocessor-based motor activity arenas (closed gray PVC cylinders with a height of 39 cm and a diameter of 31 cm). Each arena was placed on an infrared LED (8×8 LEDs) lit box (white PVC squared box; 40×40 cm^2; height 12.5 cm. An infrared-sensitive tube camera and a white light source were mounted to the ceiling above the observation chamber to track the animal. […] Noldus, Wageningen, The Netherlands). The intensity of the light within the activity cages (measured in the centre at the level of the floor) ranged between 4 and 8 LUX. The rats were pretreated with test compound or vehicle at 60 min before the start of the activity recordings and placed into individual cages. […] WO2010/130424; Cid et al. J. Med.

T1 sequence (Q14416 19-872): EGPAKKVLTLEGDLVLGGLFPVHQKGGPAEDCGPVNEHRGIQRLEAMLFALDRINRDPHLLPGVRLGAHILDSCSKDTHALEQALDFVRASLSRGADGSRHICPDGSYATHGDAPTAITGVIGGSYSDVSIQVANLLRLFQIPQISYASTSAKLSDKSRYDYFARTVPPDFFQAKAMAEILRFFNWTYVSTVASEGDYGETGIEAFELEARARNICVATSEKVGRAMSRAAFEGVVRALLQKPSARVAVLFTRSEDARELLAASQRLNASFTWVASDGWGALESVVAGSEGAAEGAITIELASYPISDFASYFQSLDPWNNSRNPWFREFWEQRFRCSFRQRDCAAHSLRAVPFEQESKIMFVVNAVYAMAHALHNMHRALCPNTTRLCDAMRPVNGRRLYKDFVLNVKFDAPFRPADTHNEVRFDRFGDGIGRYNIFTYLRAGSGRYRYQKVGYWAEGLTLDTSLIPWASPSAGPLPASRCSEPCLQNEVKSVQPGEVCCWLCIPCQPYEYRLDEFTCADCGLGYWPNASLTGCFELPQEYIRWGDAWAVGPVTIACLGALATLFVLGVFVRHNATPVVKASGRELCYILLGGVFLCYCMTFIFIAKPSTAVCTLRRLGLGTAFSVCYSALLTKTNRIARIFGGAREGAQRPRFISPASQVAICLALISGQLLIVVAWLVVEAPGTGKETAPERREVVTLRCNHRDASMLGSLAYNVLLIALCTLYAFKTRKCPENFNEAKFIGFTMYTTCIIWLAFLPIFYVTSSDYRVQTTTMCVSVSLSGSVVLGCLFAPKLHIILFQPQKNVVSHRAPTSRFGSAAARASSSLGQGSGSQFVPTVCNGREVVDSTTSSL

Row | Emax [1] | IC50 [1] | melting point | Compound | ED50 [2]
1 | 109% | 2.24 nM | 197.33 °C | Cc1ccncc1-c1cc(-c2cnn3c2C(=O)N(c2ccc(C(F)(F)F)cc2)C[C@@H]3C)no1 [Co. No. 18, (7S)-7-Methyl-3-[5-(4-methyl-3-pyridyl)isoxazol-3-yl]-5-[4-(trifluoromethyl)phenyl]-6,7-dihydropyrazolo[1,5-a]pyrazin-4-one] | 0.51 mg/kg
2 | 113% | 1.41 nM | 149.63 °C | Cc1ccncc1-c1cc(-c2cnn3c2C(=O)N(c2ccc(C(F)(F)F)c(Cl)c2)C[C@@H]3C)no1 [Co. No. 20, (7S)-5-[3-chloro-4-(trifluoromethyl)phenyl]-7-methyl-3-[5-(4-methyl-3-pyridyl)isoxazol-3-yl]-6,7-dihydropyrazolo[1,5-a]pyrazin-4-one] | 0.51 mg/kg
3 | 103% | 6.61 nM | 197.03 °C | C[C@H]1CN(c2ccc(C(F)(F)F)c(Cl)c2)C(=O)c2c(-c3cc(-c4cncc(F)c4)on3)cnn21 [Co. No. 21, (7S)-5-[3-chloro-4-(trifluoromethyl)phenyl]-3-[5-(5-fluoro-3-pyridyl)isoxazol-3-yl]-7-methyl-6,7-dihydropyrazolo[1,5-a]pyrazin-4-one] | > 0.63 mg/kg
4 | 110% | 2.09 nM | 171.25 °C | Cc1ccncc1-c1cc(-c2cnn3c2C(=O)N(c2ccc(C(F)(F)F)c(C)c2)C[C@@H]3C)no1 [Co. No. 22, (7S)-7-methyl-3-[5-(4-methyl-3-pyridyl)isoxazol-3-yl]-5-[3-methyl-4-(trifluoromethyl)phenyl]-6,7-dihydropyrazolo[1,5-a]pyrazin-4-one] | > 0.63 mg/kg
